From patent US20210341496A1, “Systems and Methods for Detecting or Monitoring Insulin” (The Florida State University Research Foundation, Inc., priority 2020, published 2021) come the findings set out here.

The structures appear in SMILES notation.

The assay relates to murine islets. Nature of the assay: Synchronization of GSIS from grouped islets by periodic CCh pulses. In kind it is cell-based. Particulars: 5 islets, constant 11 mM glucose, 30 s every 5 min. The protocol:
CCh, an M3R agonist, synchronizes glucose-induced islet activity as measured by synchronized oscillations of [Ca^2+]i levels. Because no recording of insulin release has been reported after delivery of CCh pulses, synchronized hormone secretion had not previously been verified. Using the newly-developed anisotropy method, it was tested whether GSIS from grouped islets can be entrained during periodic application of CCh.
For this experiment, reagent reservoirs connected to inlets 1 and 2 contained 11 mM glucose and 10 μM CCh in 11 mM glucose, respectively. A group of 5 islets were loaded into the islet chamber that had been filled with 11 mM glucose. After sealing the chamber, islets were continuously perfused with constant 11 mM glucose from inlet 1. CCh pulses were generated by switching the flow from inlet 1 to inlet 2. Pulse profiles consisted of 5 pulses (denoted by ‘x’ in FIG. 10A and FIG. 10B) each delivered for 30 s every 5 min. Considering broadening of each pulse (FIG. 3C), islets were exposed to an effective [CCh] of 4.7 μM.
In FIG. 10A and FIG. 10B, the glucose level remained constant at 11 mM. In the islet chamber during each experiment were 5 islets. In FIG. 10A, GSIS was synchronized by a train of 5 CCh pulses. Each 30 second pulse, ‘x’, was delivered every 5 minutes from 5 to 25 minutes. Numbered insulin peaks highlight oscillations likely stimulated by a CCh pulse. […]

As to `C[N+](C)(C)CCOC(N)=O` [CCh, carbachol], the “insulin spikes after CCh pulses, average of final 3 spikes” value (5 pulses of 10 μM CCh (effective 4.7 μM)) was 78±12 pg min^−1 islet^−1. Moreover, the “synchronization of GSIS” value (train of 5 CCh pulses) is reported as “synchronized”.
